Measured values reported in US9156801B2, “2-substituted oleanolic acid derivative, method preparing for same, and application thereof” (HANGZHOU BENSHENG PHARMACEUTICAL CO., LTD., priority 2011, dated 2015).
In brackets after ≈: the same amount, converted by molar mass.

Legend:
[1] = system: RPMI8226 cell line; assay: multiple myeloma cell growth inhibition, MTT; assay type: cell-based; conditions: Homo sapiens, RPMI-8226; for inhibition at 16 µg/mL: RPMI8226, 16 μg/mL compound, 72 h, read-out: IR (cell proliferation inhibition rate); for IC50: RPMI8226, 72 h
Summary of the method: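 RPMI8226 cells (6000 per well) in RPMI 1640 with 10% FBS were exposed to several concentrations of compound for 72 h at 37° C and 5% CO2. Viable cells were quantified by MTT, with inhibition set to 0% in untreated controls.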

[2] = system: Hep G2 cell line; assay: solid tumor cell growth inhibition, MTT; assay type: cell-based, human; conditions: for inhibition at 16 µg/mL / IC50: Homo sapiens; for inhibition at 16 µg/mL: HepG2, 72 h, Hep G2, 16 μg/mL compound, 72 h, read-out: IR (cell proliferation inhibition rate); for IC50: HepG2, Hep G2, 72 h
Summary of the method: (§1)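 MTT read-out of relative living-cell number after a 72 h compound exposure at 37° C, 5% CO2. Cells had been plated at 4000 per well in DMEM high glucose containing 10% fetal bovine serum and allowed 24 h before dosing. Inhibition is referenced to untreated wells set at 0%.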

[3] = system: Becap37 cell line; assay: solid tumor cell growth inhibition, MTT; assay type: cell-based; conditions: Homo sapiens; for inhibition at 16 µg/mL: Becap37, 16 μg/mL compound, 72 h, read-out: IR (cell proliferation inhibition rate); for IC50: Becap37, 72 h
Summary of the method: as §1

[4] = system: CNE cell line; assay: solid tumor cell growth inhibition, MTT; assay type: cell-based; conditions: Homo sapiens, 72 h; for inhibition at 16 µg/mL: 16 μg/mL compound, read-out: IR (cell proliferation inhibition rate)
Summary of the method: as §1

[5] = system: Hep-2 cell line; assay: solid tumor cell growth inhibition, MTT; assay type: cell-based; conditions: Homo sapiens; for IC50: HEp-2, 72 h; for inhibition at 16 µg/mL: Hep-2, 16 μg/mL compound, 72 h, read-out: IR (cell proliferation inhibition rate)
Summary of the method: as §1

[6] = system: U87 MG cell line; assay: solid tumor cell growth inhibition, MTT; assay type: cell-based; conditions: Homo sapiens, U-87 MG, 72 h; for inhibition at 16 µg/mL: 16 μg/mL compound, read-out: IR (cell proliferation inhibition rate)
Summary of the method: as §1

[7] = system: MG-63 cell line; assay: solid tumor cell growth inhibition, MTT; assay type: cell-based; conditions: Homo sapiens; for IC50: MG-63, 72 h; for inhibition at 16 µg/mL: MG-63, 16 μg/mL compound, 72 h, read-out: IR (cell proliferation inhibition rate)
Summary of the method: as §1

[8] = system: CaES-17 cell line; assay: solid tumor cell growth inhibition, MTT; assay type: cell-based; conditions: Homo sapiens, CaEs17; for inhibition at 16 µg/mL: CaES-17, 16 μg/mL compound, 72 h, read-out: IR (cell proliferation inhibition rate); for IC50: CaES-17, 72 h
Summary of the method: as §1

[9] = system: SK-OV-3 cell line; assay: solid tumor cell growth inhibition, MTT; assay type: cell-based; conditions: Homo sapiens; for IC50: SK-OV-3, 72 h; for inhibition at 16 µg/mL: SK-OV-3, 16 μg/mL compound, 72 h, read-out: IR (cell proliferation inhibition rate)
Summary of the method: as §1

[10] = system: PANC-1 cell line; assay: solid tumor cell growth inhibition, MTT; assay type: cell-based; conditions: Homo sapiens; for IC50: PANC-1, 72 h; for inhibition at 16 µg/mL: PANC-1, 16 μg/mL compound, 72 h, read-out: IR (cell proliferation inhibition rate)
Summary of the method: as §1

[11] = system: PC-3 cell line; assay: solid tumor cell growth inhibition, MTT; assay type: cell-based; conditions: Homo sapiens; for IC50: PC-3, 72 h; for inhibition at 16 µg/mL: PC-3, 16 μg/mL compound, 72 h, read-out: IR (cell proliferation inhibition rate)
Summary of the method: as §1

[12] = system: A549 cell line; assay: solid tumor cell growth inhibition, MTT; assay type: cell-based; conditions: Homo sapiens; for IC50: A549, 72 h; for inhibition at 16 µg/mL: A549, 16 μg/mL compound, 72 h, read-out: IR (cell proliferation inhibition rate)
Summary of the method: as §1

[13] = system: MGC 803 cell line; assay: solid tumor cell growth inhibition, MTT; assay type: cell-based; conditions: Homo sapiens; for inhibition at 16 µg/mL: MGC 803, 16 μg/mL compound, 72 h, read-out: IR (cell proliferation inhibition rate); for IC50: MGC 803, 72 h
Summary of the method: as §1

[14] = system: Hela cell line; assay: solid tumor cell growth inhibition, MTT; assay type: cell-based; conditions: Homo sapiens, 72 h; for IC50: HeLa; for inhibition at 16 µg/mL: Hela, 16 μg/mL compound, read-out: IR (cell proliferation inhibition rate)
Summary of the method: as §1

[15] = system: RKO cell line; assay: solid tumor cell growth inhibition, MTT; assay type: cell-based; conditions: Homo sapiens, 72 h; for inhibition at 16 µg/mL: 16 μg/mL compound, read-out: IR (cell proliferation inhibition rate)
Summary of the method: as §1

[16] = system: Kasumi-1 cell line; assay: leukemia cell growth inhibition, MTT; assay type: cell-based; conditions: Homo sapiens; for inhibition at 16 µg/mL: Kasumi-1, 16 μg/mL compound, 72 h, read-out: IR (cell proliferation inhibition rate); for IC50: Kasumi-1, 72 h
Summary of the method: (§2)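 6000 cells per well in RPMI 1640 with 10% FBS were exposed to the oleanolic acid derivatives at a range of concentrations for 72 h at 37 °C, 5% CO2. Viable cells were measured by MTT, with untreated control inhibition set at 0%.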

[17] = system: Jurkat cell line; assay: leukemia cell growth inhibition, MTT; assay type: cell-based; conditions: Homo sapiens, 72 h; for inhibition at 16 µg/mL: 16 μg/mL compound, read-out: IR (cell proliferation inhibition rate)
Summary of the method: as §2

[18] = system: K562/adr cell line; assay: leukemia cell growth inhibition, MTT; assay type: cell-based; conditions: Homo sapiens, 72 h; for IC50: K562/Adr; for inhibition at 16 µg/mL: K562/adr, 16 μg/mL compound, read-out: IR (cell proliferation inhibition rate)
Summary of the method: as §2

[19] = system: H9 cell line; assay: leukemia cell growth inhibition, MTT; assay type: cell-based; conditions: Homo sapiens; for IC50: H9, 72 h; for inhibition at 16 µg/mL: H9, 16 μg/mL compound, 72 h, read-out: IR (cell proliferation inhibition rate)
Summary of the method: as §2

[20] = system: NB4 cell line; assay: leukemia cell growth inhibition, MTT; assay type: cell-based; conditions: Homo sapiens, NB-4; for inhibition at 16 µg/mL: NB4, 16 μg/mL compound, 72 h, read-out: IR (cell proliferation inhibition rate); for IC50: NB4, 72 h
Summary of the method: as §2

Compound: CN1CCN(CCCNC(=O)C2C[C@]3(C)[C@H]4CC=C5[C@@H]6CC(C)(C)CC[C@]6(C(=O)O)CC[C@@]5(C)[C@]4(C)CC[C@H]3C(C)(C)C2=O)CC1 (stereo partly shown) [BS-OA-110]
- inhibition at 16 µg/mL [1]: 96.7%
- IC50 [1]: 8.58 µg/mL (≈ 13.4 µM)
- inhibition at 16 µg/mL [2]: 29.5%
- IC50 [2]: > 16 µg/mL
- inhibition at 16 µg/mL [3]: 22.2%
- IC50 [3]: > 16 µg/mL
- inhibition at 16 µg/mL [4]: 30.1%
- IC50 [4]: > 16 µg/mL
- IC50 [5]: > 16 µg/mL
- inhibition at 16 µg/mL [5]: -6.3%
- inhibition at 16 µg/mL [6]: -12.6%
- IC50 [6]: > 16 µg/mL
- IC50 [7]: > 16 µg/mL
- inhibition at 16 µg/mL [7]: 29.5%
- inhibition at 16 µg/mL [8]: -1%
- IC50 [8]: > 16 µg/mL
- IC50 [9]: > 16 µg/mL
- inhibition at 16 µg/mL [9]: -20.1%
- IC50 [10]: > 16 µg/mL
- inhibition at 16 µg/mL [10]: 13.1%
- IC50 [11]: > 16 µg/mL
- inhibition at 16 µg/mL [11]: -11.4%
- IC50 [12]: > 16 µg/mL
- inhibition at 16 µg/mL [12]: 4%
- inhibition at 16 µg/mL [13]: 2.9%
- IC50 [13]: > 16 µg/mL
- IC50 [14]: > 16 µg/mL
- inhibition at 16 µg/mL [14]: 26.1%
- inhibition at 16 µg/mL [15]: -19.1%
- IC50 [15]: > 16 µg/mL
- inhibition at 16 µg/mL [16]: 41.7%
- IC50 [16]: > 16 µg/mL
- inhibition at 16 µg/mL [17]: 45.5%
- IC50 [17]: 18.4 µg/mL (≈ 28.8 µM)
- IC50 [18]: 8.79 µg/mL (≈ 13.8 µM)
- inhibition at 16 µg/mL [18]: 81.9%
- IC50 [19]: > 16 µg/mL
- inhibition at 16 µg/mL [19]: 37.9%
- inhibition at 16 µg/mL [20]: 78.8%
- IC50 [20]: 8.95 µg/mL (≈ 14 µM)

Compound: CC1(C)CC[C@]2(C(=O)O)CC[C@]3(C)C(=CC[C@@H]4[C@@]5(C)CC[C@H](O)C(C)(C)[C@@H]5CC[C@]43C)[C@@H]2C1 [OA, Oleanolic acid]
- inhibition at 16 µg/mL [1]: 2.2%
- IC50 [1]: > 16 µg/mL
- proliferation inhibition effect (in words) ([2]; Hep G2): does not exhibit obvious proliferation inhibition effect
- inhibition at 16 µg/mL [2]: -18.5%
- IC50 [2]: > 16 µg/mL
- inhibition at 16 µg/mL [3]: 23.4%
- IC50 [3]: > 16 µg/mL
- inhibition at 16 µg/mL [4]: 33.9%
- IC50 [4]: > 16 µg/mL
- IC50 [5]: > 16 µg/mL
- inhibition at 16 µg/mL [5]: 9.8%
- inhibition at 16 µg/mL [6]: 21.8%
- IC50 [6]: > 16 µg/mL
- IC50 [7]: > 16 µg/mL
- inhibition at 16 µg/mL [7]: 29.2%
- inhibition at 16 µg/mL [8]: 27.4%
- IC50 [8]: > 16 µg/mL
- IC50 [9]: > 16 µg/mL
- inhibition at 16 µg/mL [9]: 8.3%
- IC50 [10]: > 16 µg/mL
- inhibition at 16 µg/mL [10]: 8.5%
- IC50 [11]: > 16 µg/mL
- inhibition at 16 µg/mL [11]: 29.1%
- IC50 [12]: > 16 µg/mL
- inhibition at 16 µg/mL [12]: 5%
- inhibition at 16 µg/mL [13]: 19.7%
- IC50 [13]: > 16 µg/mL
- IC50 [14]: > 16 µg/mL
- inhibition at 16 µg/mL [14]: 22.9%
- inhibition at 16 µg/mL [15]: 14.3%
- IC50 [15]: > 16 µg/mL
- inhibition at 16 µg/mL [16]: 17.2%
- IC50 [16]: > 16 µg/mL
- inhibition at 16 µg/mL [17]: 9.4%
- IC50 [17]: > 16 µg/mL
- IC50 [18]: > 16 µg/mL
- inhibition at 16 µg/mL [18]: 26.5%
- IC50 [19]: > 16 µg/mL
- inhibition at 16 µg/mL [19]: 22.8%
- inhibition at 16 µg/mL [20]: 17.2%
- IC50 [20]: > 16 µg/mL

Compound: COC(=O)[C@]12CCC(C)(C)CC1C1=CCC3[C@@]4(C)CC(C(=O)NCCCN5CCN(C)CC5)C(=O)C(C)(C)C4CC[C@@]3(C)[C@]1(C)CC2 (stereo partly shown) [BS-OA-078]
- inhibition at 16 µg/mL [1]: 99.1%
- IC50 [1]: 0.74 µg/mL (≈ 1.14 µM)
- inhibition at 16 µg/mL [2]: 99.7%
- IC50 [2]: 4.77 µg/mL (≈ 7.32 µM)
- inhibition at 16 µg/mL [3]: 98.1%
- IC50 [3]: 6.23 µg/mL (≈ 9.56 µM)
- inhibition at 16 µg/mL [4]: 99.7%
- IC50 [4]: 5.01 µg/mL (≈ 7.68 µM)
- IC50 [5]: 8.25 µg/mL (≈ 12.7 µM)
- inhibition at 16 µg/mL [5]: 97.3%
- inhibition at 16 µg/mL [6]: 98.6%
- IC50 [6]: 3 µg/mL (≈ 4.6 µM)
- IC50 [7]: 5.7 µg/mL (≈ 8.74 µM)
- inhibition at 16 µg/mL [7]: 100%
- inhibition at 16 µg/mL [8]: 99.4%
- IC50 [8]: 3.61 µg/mL (≈ 5.54 µM)
- IC50 [9]: 5.49 µg/mL (≈ 8.42 µM)
- inhibition at 16 µg/mL [9]: 98.9%
- IC50 [10]: 9.69 µg/mL (≈ 14.9 µM)
- inhibition at 16 µg/mL [10]: 100%
- IC50 [11]: 6.82 µg/mL (≈ 10.5 µM)
- inhibition at 16 µg/mL [11]: 98.4%
- IC50 [12]: 3.58 µg/mL (≈ 5.49 µM)
- inhibition at 16 µg/mL [12]: 97.6%
- inhibition at 16 µg/mL [13]: 99.5%
- IC50 [13]: 5.26 µg/mL (≈ 8.07 µM)
- IC50 [14]: 4.54 µg/mL (≈ 6.96 µM)
- inhibition at 16 µg/mL [14]: 99.4%
- inhibition at 16 µg/mL [15]: 97.5%
- IC50 [15]: 3.91 µg/mL (≈ 6 µM)
- inhibition at 16 µg/mL [16]: 97.9%
- IC50 [16]: 5.67 µg/mL (≈ 8.7 µM)
- inhibition at 16 µg/mL [17]: 98.3%
- IC50 [17]: 2.5 µg/mL (≈ 3.83 µM)
- IC50 [18]: 0.89 µg/mL (≈ 1.37 µM)
- inhibition at 16 µg/mL [18]: 99.1%
- IC50 [19]: 4.33 µg/mL (≈ 6.64 µM)
- inhibition at 16 µg/mL [19]: 97.5%
- inhibition at 16 µg/mL [20]: 100%
- IC50 [20]: 4.59 µg/mL (≈ 7.04 µM)
